In a melting point compilation (Tetko et al.; mined from patent text by program, amines drawn as free bases though some values may be those of a salt):

Row | Structure (SMILES) | melting point [°C]
1 | CC(C)(C)OC(=O)N1CCC(Cc2ccc(Cl)cc2)(C(=O)O)CC1 | 179 to 180
2 | CCCCC1(CCCC)CS(=O)(=O)c2ccc(N(C)C)cc2C(c2ccc(OCc3cccnc3CCC(=O)O)cc2)C1O (stereo not drawn) | 105 to 107
3 | CC(C)(C)N(NC(=O)c1ccccc1)C(=O)c1cccs1 | > 200
4 | COc1ccccc1NC(=O)Cc1ccccc1 | 128 to 131
5 | COc1ccc(OCc2ccccn2)cc1/C=C/c1cc(/C=C/c2ccc3cc[nH]c3c2)n[nH]1 | 111 to 120
6 | CCCNC(=O)C1=C(C(=O)Nc2cc(OC3CCCC3)c(Cl)cc2F)CCCC1 | 138 to 140
7 | CC(C)(C)OC(=O)N1C(=O)C(Br)=C(c2cn(C(=O)OC(C)(C)C)c3ccc(OCc4ccccc4)cc23)C1=O | 134
8 | O=C(O)C1CCCN1C(=O)c1ccc(-c2ccccc2)cc1 (stereo not drawn) | 160
9 | Cn1ncc2c1C(=O)C(Cl)=C(Cl)C2=O | 176 to 177
10 | CC(=O)Nc1nonc1-c1nc2ccccc2n1CC(=O)c1ccc(Cl)cc1 | 202 to 205
11 | CN(CCN(C)S(=O)(=O)c1ccc(F)cc1)C(=O)c1ccc(Nc2ccnc3cc(C(F)(F)F)ccc23)cc1 | 191 to 193
12 | CCCCCCCCCC[C@H](O)c1ccc2ccccc2c1 | 53 to 54
13 | CCCSc1sc(C(=O)NC)c2c1-c1c(cnn1CC(F)(F)F)CC2 | 75 to 76
14 | Cn1c(C(F)(F)F)c(C#N)c2ccc(Cl)cc21 | 142 to 145
15 | NC(=O)c1ccc2c(c1)CCOC2CCN1CCN(c2ccc(Cl)cc2)CC1 (stereo not drawn) | 169 to 171
16 | CN(C)C(=O)OC1c2ccccc2C(=O)N1c1ccc2ccc(Cl)nc2n1 (stereo not drawn) | 217 to 218
17 | Cc1ccc(-c2cc(CN3C(=O)c4ccccc4C3=O)c(=O)n(CC(C)C)n2)cc1 | 222 to 224
18 | Cc1c(C(=O)O)cnn1-c1c(Cl)cc(Cl)cc1Cl | 184 to 186
19 | O=c1[nH]nc(Cc2ccncn2)c2ccccc12 | 204 to 206
20 | Cc1cccc(Cl)c1S(=O)(=O)NC(=O)n1nc(Br)n(N(C)C)c1=O | 163
21 | CC(=O)Nc1ccc(C(=O)SC[C@@H](C)C(=O)N2CSC[C@H]2C(=O)O)cc1 | 206 to 207
22 | CCOC(=O)C1=C(C)N(CCOC(=O)c2ccccc2)C(=O)NC1c1ccc(OC)cc1 (stereo not drawn) | 75
23 | CC#CC(C)(C)NC(=O)C(CC)Oc1cncc(C#N)c1 (stereo not drawn) | 112 to 113
24 | CCOC(=O)C1=C(C)NC(CSCCc2ccccc2)=C(C(=O)OCC)C1c1cccc([N+](=O)[O-])c1 (stereo not drawn) | 73 to 75
25 | O=C(O)C(=O)CC(=O)c1cccn1Cc1cccc(F)c1F | 154 to 156

Row | Structure (SMILES) | melting point [°C]
26 | O=[N+]([O-])c1cn2c(n1)O[C@@H](COc1ccc(N3CCC(Nc4ccc(OC(F)(F)F)cc4)CC3)cc1)CC2 | 189 to 190
27 | COC1=CC(=O)C(Cc2ncn(C(c3ccccc3)(c3ccccc3)c3ccccc3)c2C)CC1 (stereo not drawn) | 145 to 148
28 | O=[N+]([O-])c1ccc(Cl)c(F)c1O | 73
29 | CCOC(=O)Cn1cc(C(=O)NCc2ccc(Cl)cc2Cl)c(OCC)n1 | 120 to 121
30 | Cn1nc(C(F)(F)F)n(-c2ccc(N)cc2Cl)c1=S | 145 to 147
31 | OCc1cc2c(F)ccc(Br)c2s1 | 80 to 81
32 | COC(=O)c1ccc(OCCNC(=O)C2Cc3ccccc3N2S(=O)(=O)c2ccc(-c3cccc(C(F)(F)F)c3)cc2)c(C(F)(F)F)c1 (stereo not drawn) | 92 to 98
33 | Oc1ccccc1C=NC1CCOc2ccccc21 (stereo not drawn) | 123 to 126
34 | Oc1cc(=S)sc2cccc(C(F)(F)F)c12 | 142 to 144
35 | COc1nc(N)nc(SC(F)F)n1 | 146 to 150
36 | CCCCc1cc(NN)n2nccc2n1 | 126 to 129
37 | CCCCN(CCCC)S(=O)(=O)c1cc(C(=O)CCl)ccc1Cl | 71
38 | COc1ccc(CCc2cc(OC)c(OC)cc2C)cc1OC | 102
39 | CC1CCN(c2nccc(Oc3ccc(NC(=O)c4cc(F)cc(N5CCCCC5)c4)c4ccccc34)n2)CC1 | 145 to 146
40 | O=S(=O)(c1ccc(Cl)cc1)c1ccc(-c2ccccc2)cc1 | 169
41 | N#Cc1c(N2CCN(C(=O)c3ccco3)CC2)c2cc(Cl)cnc2[nH]c1=O | 303
42 | O=C(C1CCCCC1)C1CCN(S(=O)(=O)c2ccccc2)CC1 | 141 to 143
43 | O=C1c2cccc3cc4ccccc4c(c23)C(=O)N1CCCNCCN1C(=O)c2cccc3cc4ccccc4c(c23)C1=O | 260
44 | CN1CCC(c2c[nH]c3ccc(NC(=N)c4cccs4)cc23)C(F)C1 (stereo not drawn) | 115 to 117
45 | CC(=O)N[C@@H](C)COc1cc(-c2nc3cc(OCC4CC4)ccc3o2)on1 | 156 to 157
46 | CCCc1c(OCCCOc2cc(OCC(=O)OC)ccc2C(C)=O)ccc(C(C)=O)c1O | 103 to 106
47 | O=C(C1CC1)N1CCC2(CC1)Cc1ccccc1O2 | 111 to 113
48 | N#Cc1cc(N)ccc1N1CCC(N2CCC(O)CC2)CC1 | 175
49 | O=C(c1cccs1)c1cnn2c(-c3cccc(NCC=C(c4ccccc4)c4ccccc4)c3)ccnc12 | 156 to 158
50 | CC12CCC(=O)CC1CCC1C2CCC2(C)C(C(N)=O)CCC12 (stereo not drawn) | 259 to 262

Row | Structure (SMILES) | melting point [°C]
51 | N#Cc1ccc(C(=O)c2ccc(OC3OCC(O)C(O)C3O)cc2)cc1 (stereo not drawn) | 189
52 | CC1C(=O)NN(c2cc(Cl)cc(Cl)c2)C1=O (stereo not drawn) | 95 to 100
53 | CC(C)(O)[C@@H](N)c1cccc2ccccc12 | 86 to 87
54 | CCOC(=O)/C=C/c1cn(C)c2ccccc12 | 94 to 98
55 | CC(C)OC(=O)c1cc(F)c(F)c(-c2ccc(Cl)cc2)n1 | 73 to 74
56 | CC(C)n1nc(-c2nc(O)cnc2-c2ccccc2)ccc1=O | 198 to 200
57 | CCN(CC)C(=O)c1c(C(=O)NN=Cc2ccc(Cl)cc2)[nH]c2ccccc12 | 255 to 257
58 | O=C1CCC(N2C(=O)c3ccc(CNC(=O)c4ccc(Cl)c(Cl)c4)cc3C2=O)C(=O)N1 (stereo not drawn) | 253 to 255
59 | COc1ccc(C2=NN(C3CCN(C(=O)CN4C(=O)Cc5ccccc54)CC3)C(=O)C2(C)C)cc1OC | 178
60 | CCCCc1nc[nH]c(=O)c1Cc1ccc(-c2ccccc2C(=O)O)cc1 | 197 to 200
61 | COc1cc(OC)c2cc(S(=O)(=O)Cc3ccc(OC)c([N+](=O)[O-])c3)c(=O)oc2c1 | 224 to 225
62 | COc1cc(C(=O)NC(C)(C)C)ccc1S(=O)(=O)Cl | 145 to 149
63 | COc1ccnc(CCc2nc3cc(-c4cccs4)cnc3[nH]2)c1 | 132 to 133
64 | OC1CSC(Oc2cc(-c3ccnc(F)c3)ccc2Cl)C(O)C1O (stereo not drawn) | 162
65 | CCOC(=O)c1cnc2[nH]c(-c3cc(OCc4ccccc4)ccc3OC(C)C)nc2c1 | 138 to 140
66 | Fc1ccc2c(c1)CC[C@H](CNCCNc1ncccn1)O2 | 103
67 | CC(=O)c1sc(-c2ccc(-c3ccccc3)cc2)nc1C | 124 to 125
68 | CN1CCC(CNC(=O)c2ccc(-c3[nH]nc4c3C(=O)c3c(NC(=O)NN5CCOCC5)cccc3-4)s2)C1 (stereo not drawn) | 151 to 153
69 | CCCCCCOC1=c2ccc3c(c2=C(c2ccc4c(c2)OCO4)C(C)(C(=O)OC)C1(C)C(=O)OC)OCO3 (stereo not drawn) | 110 to 111
70 | NC(=O)c1cc([N+](=O)[O-])c(Oc2ccccc2)c(S(N)(=O)=O)c1 | 255 to 256
71 | Cc1oc(-c2ccccc2)nc1CCOc1ccc(/C=C/C=C/CO)cc1 | 132 to 133
72 | CC1Oc2cc3nc(SCc4ccccn4)[nH]c3cc2O1 | 155 to 156
73 | CCOC(=O)C1=C(C)NC(c2c(F)cc(F)cc2F)=NC1c1ccc(F)cc1Cl (stereo not drawn) | 184 to 186
74 | Cc1cc(-c2nnnn2C2CC2)ccc1N | 139 to 140
75 | CCOC(=O)C[C@@H]1CCCC[C@H]1n1nc(-c2c(-c3ccccc3)nn3ccccc23)ccc1=O (relative stereo) | 151 to 152

Row | Structure (SMILES) | melting point [°C]
76 | Cc1[nH]c(=O)[nH]c1C(=O)c1ccc(F)cc1 | 289 to 292
77 | O=C(O)c1cccc2cc(Sc3cc(Cl)ncn3)ccc12 | 209
78 | CC(C)c1ccccc1S(=O)(=O)c1ccc(O)cc1 | 160
79 | CCOC(=O)C(C)(C)c1ccc(NC(C)=O)cc1 | 76 to 76.5
80 | CCc1c(C)cc(C#N)c(N)c1C#N | 121 to 123
81 | CCCCCCCCOC(=S)c1cc(C(C)(C)C)c(OC(=O)c2cc(C(C)(C)C)c(O)c(C(C)(C)C)c2)c(C(C)(C)C)c1 | 129 to 132
82 | CC(C)C[C@H](NC(=O)[C@H](Cc1c[nH]cn1)NC(=O)[C@H](Cc1cccc2ccccc12)NC(=O)OCc1ccccc1)[C@@H](O)CC(=O)OCc1ccccc1 | 102 to 109
83 | CCC(C(=O)Oc1cc(=O)n(-c2ccccc2)c2ncccc12)c1ccccc1 (stereo not drawn) | 166 to 168
84 | Cc1ccc2nc(C3(c4ccc(S(N)(=O)=O)cc4)C=C(C(F)(F)F)NN3)oc2c1 (stereo not drawn) | 260 to 261
85 | Cc1cc(C)cc(Nc2ncc(-c3ccccc3)s2)c1 | 175 to 176
86 | Nc1ccccc1NCC12CC3CC(CC(C3)C1)C2 | 101 to 104
87 | CCOC(=O)c1cc(C#N)c(Cl)cc1OC | 102 to 103
88 | Nc1cccc(-c2ccccc2O)c1 | 158 to 161
89 | CCc1nn(Cc2ccccn2)c(C(N)=O)c1NC(=O)c1cc(S(C)(=O)=O)ccc1OCC(C)C | 225 to 227
90 | CC(C)CC(CN(C)C)(C(=O)O)C(=O)O | 134 to 137
91 | CC(=O)Nc1ccc(C(=O)c2cccnc2)cc1 | 215
92 | COc1ccc(-c2ccc3c(c2)NC(=O)CC(c2cccc(-n4ccnc4)c2)=N3)cc1 | 207 to 208
93 | CCOC(=O)C1=C(C)NC(SCc2ccccc2)=NC1c1cccc([N+](=O)[O-])c1 (stereo not drawn) | 129 to 130
94 | CC(C)(C)C1C(=O)NN=C2CCCCC21 (stereo not drawn) | 161 to 164
95 | C=CCN1CCNC(=O)c2cccc([N+](=O)[O-])c21 | 80 to 82
96 | OCc1cccn2cc(C(F)(F)F)nc12 | 118 to 120
97 | Cc1ccc(S(=O)(=O)OCCCCCCCCCOc2cccc(C(N)=O)c2)cc1 | 78 to 80
98 | CC(C)OC(=O)Nc1cccc(-c2ccnc3c(C(=O)c4ccccc4)cnn23)c1 | 116 to 118
